Legend:
[1] = system: rat; details: Subchronic dermal toxicity, sprague dawley, Topical, dose end: 13 week, group: systemic, systemic / in life observation / clinical signs / erythema
[2] = system: rat; details: Prenatal developmental toxicity study, sprague dawley, Oral, Gavage/Intubation, dose end: 15 GD
[3] = system: rat; details: Multigenerational reproductive toxicity study, sprague dawley, Oral, Feed, dose end: 2 generation
[4] = system: rabbit; details: Prenatal developmental toxicity study, dutch, Oral, Gavage/Intubation, dose end: 18 GD
[5] = system: rat; details: Combined chronic toxicity/carcinogenicity, fischer, Oral, Feed, dose end: 2 year
[6] = system: mouse; details: Combined chronic toxicity/carcinogenicity, b6c3f1, Oral, Feed, dose end: 2 year, group: systemic
[7] = system: rabbit; details: Prenatal developmental toxicity study, chinchilla, Oral, Gavage/Intubation, dose end: 18 GD
[8] = system: mouse; details: Combined chronic toxicity/carcinogenicity, b6c3f1, Oral, Feed, dose end: 102 week
[9] = system: rat; details: Subchronic oral toxicity in rodents, fischer, Feed, dose end: 13 week, group: systemic, systemic / in life observation / body weight / body weight
[10] = system: dog; details: Chronic toxicity; beagle; Oral; Feed; dose end: 53 week; group: cholinesterase; cholinesterase / cholinesterase / cholinesterase / erythrocyte cholinesterase (che) + cholinesterase / cholinesterase / cholinesterase / …
[11] = group: developmental, systemic / in life observation / body weight / fetal weight
[12] = group: maternal, reproductive / reproductive performance / resorptions / resorptions
[13] = group: maternal, systemic / in life observation / body weight / body weight gain + systemic / in life observation / clinical signs / abnormal movements + …
[14] = group: cholinesterase, cholinesterase / cholinesterase / cholinesterase / brain cholinesterase (che) + cholinesterase / cholinesterase / cholinesterase / …
[15] = group: offspring, developmental / offspring survival late / [other] / [other] + developmental / offspring survival late / viability index / viability index + …
[16] = group: parental, systemic / pathology microscopic / epididymis / vacuolization
[17] = group: parental, systemic / pathology microscopic / epididymis / vacuolization + systemic / organ weight / epididymis / absolute
[18] = group: reproductive, reproductive / offspring survival early / birth index / birth index + reproductive / reproductive performance / fertility / fertility + …
[19] = group: developmental, systemic / in life observation / body weight / fetal weight + developmental / developmental malformation / bone / unossified
[20] = group: maternal, systemic / in life observation / clinical signs / soft stools
[21] = group: maternal, systemic / in life observation / clinical signs / soft stools + reproductive / reproductive performance / resorptions / resorptions + …
[22] = group: systemic, systemic / in life observation / clinical signs / alopecia + systemic / in life observation / clinical signs / soft stools + systemic / in …
[23] = systemic / in life observation / clinical signs / fur (altered appearance) + systemic / pathology microscopic / skin / fibrosarcoma + …
[24] = systemic / pathology microscopic / skin / fibrosarcoma + systemic / pathology microscopic / skin / rhabdomyosarcoma + systemic / in life …
[25] = group: maternal, reproductive / reproductive performance / resorptions / resorptions + reproductive / reproductive performance / aborted / aborted + …
[26] = group: cholinesterase, cholinesterase / cholinesterase / cholinesterase / plasma cholinesterase (che)
[27] = group: systemic, systemic / in life observation / body weight / body weight
[28] = group: systemic, systemic / in life observation / body weight / body weight + systemic / clinical chemistry / cholesterol / cholesterol + systemic / organ …

In the case of `O=[N+]([O-])C(CO)(CO)CO` [2-(Hydroxymethyl)-2-nitro-1,3-propanediol], the LEL [1] was 1000 mg/kg/day, the LOAEL [1] was greater than 1000 mg/kg/day and the NEL [1] was 500 mg/kg/day. For the same compound, the NOAEL [1] was no less than 1000 mg/kg/day, the LEL [2, 11] was 750 mg/kg/day and the LOAEL [2, 11] was greater than 750 mg/kg/day. It also gave an NEL [2, 11] of 375 mg/kg/day, an NOAEL [2, 11] of no less than 750 mg/kg/day and an LEL [2, 12] of 375 mg/kg/day. For the same compound, the LOAEL [2, 13] was 750 mg/kg/day, the NEL [2, 13] was 50 mg/kg/day and the NOAEL [2, 13] was 375 mg/kg/day.

Work on `COP(=S)(OC)Oc1ccc(SC)c(C)c1` [Fenthion] yielded an LEL [3, 14] of 0.7 mg/kg/day, an LOAEL [3, 14] of 0.7 mg/kg/day and an NEL [3, 14] of 0.1 mg/kg/day. For the same compound, the NOAEL [3, 14] was 0.1 mg/kg/day, the LEL [3, 15] was 5 mg/kg/day and the LOAEL [3, 15] was greater than 5 mg/kg/day. For the same compound, the NEL [3, 15] was 0.7 mg/kg/day, the NOAEL [3, 15] was no less than 5 mg/kg/day and the LEL [3, 16] was 0.7 mg/kg/day. It also gave an LOAEL [3, 16] of 0.7 mg/kg/day, an NEL [3, 17] of 0.1 mg/kg/day and an NOAEL [3, 17] of 0.1 mg/kg/day. It also gave an LEL [3, 18] of 5 mg/kg/day, an LOAEL [3, 18] greater than 5 mg/kg/day and an NEL [3, 18] of 0.7 mg/kg/day. It also gave an NOAEL [3, 18] of no less than 5 mg/kg/day, an LEL [4, 14] of 2.75 mg/kg/day and an LOAEL [4, 14] of 2.75 mg/kg/day. It also gave an NEL [4, 14] of 1 mg/kg/day, an NOAEL [4, 14] of 1 mg/kg/day and an LEL [4, 11] of 2.75 mg/kg/day. For the same compound, the LOAEL [4, 19] was greater than 7.5 mg/kg/day, the NEL [4, 19] was 1 mg/kg/day and the NOAEL [4, 19] was no less than 7.5 mg/kg/day. The LEL [4, 20] was 2.75 mg/kg/day, the LOAEL [4, 20] was 2.75 mg/kg/day and the NEL [4, 21] was 1 mg/kg/day. It also gave an NOAEL [4, 21] of 1 mg/kg/day, an LEL [5, 14] of 0.07 mg/kg/day and an LOAEL [5, 14] of 0.07 mg/kg/day. The NEL [5, 14] was less than 0.07 mg/kg/day, the NOAEL [5, 14] was less than 0.07 mg/kg/day and the LEL [5, 22] was 0.3 mg/kg/day. It also gave an LOAEL [5, 22] of 0.3 mg/kg/day, an NEL [5, 22] of 0.07 mg/kg/day and an NOAEL [5, 22] of 0.07 mg/kg/day. It also gave an LOAEL [6, 23] greater than 3 mg/kg/day, an NOAEL [6, 23] of no less than 3 mg/kg/day and an LEL [6, 24] of 1.5 mg/kg/day. It also gave an NEL [6, 24] of less than 1.5 mg/kg/day, an LEL [7, 11] of 18 mg/kg/day and an LOAEL [7, 11] of 18 mg/kg/day. It also gave an NEL [7, 11] of 6 mg/kg/day, an NOAEL [7, 11] of 6 mg/kg/day and an LEL [7, 12] of 6 mg/kg/day. It also gave an LOAEL [7, 12] of 6 mg/kg/day, an NEL [7, 25] of 2 mg/kg/day and an NOAEL [7, 25] of 2 mg/kg/day. It also gave an LEL [8, 26] of 0.03 mg/kg/day, an LOAEL [8, 26] of 0.03 mg/kg/day and an NEL [8, 26] of less than 0.03 mg/kg/day. For the same compound, the NOAEL [8, 26] was less than 0.03 mg/kg/day, the LEL [8, 27] was 1.95 mg/kg/day and the LOAEL [8, 27] was 1.95 mg/kg/day. The NEL [8, 28] was 0.4 mg/kg/day, the NOAEL [8, 28] was 0.4 mg/kg/day and the LEL [9] was 16 mg/kg/day. For the same compound, the LOAEL [9] was 16 mg/kg/day, the NEL [9] was 8 mg/kg/day and the NOAEL [9] was 8 mg/kg/day. It also gave an LEL [10] of 0.258 mg/kg/day, an LOAEL [10] of 0.258 mg/kg/day and an NEL [10] of 0.056 mg/kg/day. The NOAEL [10] was 0.056 mg/kg/day.

— EPA's ToxRefDB 2
